This passage reports EC50 results from US8999967B2, “Tricyclic fused ring inhibitors of hepatitis C” (Presidio Pharmaceuticals, Inc., priority 2010, dated 2015).

pEC50: −log10 of the molar value.

The experiment deals with HCV 1b_Huh-Luc/Neo-ET cell line (genotype 1b replicon in Huh 7 cells). As to the kind of experiment: HCV replicon assay (luciferase readout). Type of experiment: cell-based. Particulars: Hepatitis C virus, HCV 1b replicon in Huh 7 cells, 72 h incubation, EC50 range class, read-out: Inhibition of HCV genotype 1b. On the procedure: Biological activity of the compounds of the invention was determined using an HCV replicon assay. The HCV 1b_Huh-Luc/Neo-ET cell line persistently expressing a bicistronic genotype 1b replicon in Huh 7 cells was obtained from ReBLikon GMBH. This cell line was used to test compound inhibition using luciferase enzyme activity readout as a measurement of compound inhibition of replicon levels.
On Day 1 (the day after plating cells), each compound is added in triplicate to the cells. Plates are incubated for 72 h prior to determining luciferase levels. Enzyme activity was measured using a Bright-Glo Kit (cat. number E2620) manufactured by Promega Corporation. The following equation was used to generate a percent control value for each compound. % Control=(Compound Luciferase Level/Control Luciferase Level)*100
The EC50 value was determined using GraphPad Prism and the following equation: Y=Bottom asymptote+(Top asymptote-Bottom asymptote)/(1+10^((Log EC50−X)*HillSlope))
EC50 values of compounds are determined several times in the replicon assay to generate average EC50 values. […]
In the case of `COC(=O)N[C@@H](C(=O)N1CCC[C@H]1c1ncc(-c2ccc3nc4cc(-c5cnc([C@@H]6CCCN6C(=O)[C@H](NC(=O)OC)c6ccccc6)[nH]5)ccc4nc3c2)[nH]1)c1ccccc1` [Example 2], the pEC50 is above 9.00.
For `CC[C@H](C)[C@H](NC(=O)OC)C(=O)N1CCC[C@H]1c1ncc(-c2ccc3c(c2)Cc2ccc(-c4cnc([C@@H]5CCCN5C(=O)[C@@H](NC(=O)OC)[C@@H](C)CC)[nH]4)cc2O3)[nH]1` [Compound 31] the value was above 9.00; for `COC(=O)N[C@H](C(=O)N1CCC[C@H]1c1ncc(-c2ccc3c(=O)c4cc(-c5cnc([C@@H]6COCCN6C(=O)[C@@H](NC(=O)OC)[C@@H](C)OC)[nH]5)ccc4oc3c2)[nH]1)[C@@H](C)OC` [Compound 131], above 9.00; for `COC(=O)N[C@@H](C(=O)N1CCC[C@H]1c1ncc(-c2ccc3oc4cc(-c5cnc([C@@H]6CCCN6C(=O)[C@H](NC(=O)OC)c6ccccc6)[nH]5)c(C)cc4c(=O)c3c2)[nH]1)c1ccccc1` [Compound 127], above 9.00.
Then `COC(=O)N[C@@H](C(=O)N1CCOC[C@H]1c1ncc(-c2ccc3c(c2)Oc2ccc(-c4cnc([C@@H]5COCCN5C(=O)[C@H](NC(=O)OC)c5ccccc5)[nH]4)cc2O3)[nH]1)c1ccccc1` [Compound 65], with above 9.00; and `COC(=O)N[C@H](C(=O)N1CCC[C@H]1c1ncc(-c2ccc3oc4cc(-c5cnc([C@@H]6CCCN6C(=O)[C@@H](NC(=O)OC)C(C)C)[nH]5)c(C)cc4c(=O)c3c2)[nH]1)C(C)C` [Compound 126], with above 9.00; and `[2H]C([2H])([2H])C([2H])(C([2H])([2H])[2H])[C@]([2H])(NC(=O)OC)C(=O)N1CCC[C@H]1c1ncc(-c2ccc3c(c2)C(C)(C)c2ccc(-c4ccc5nc([C@@H]6CCCN6C(=O)[C@@]([2H])(NC(=O)OC)C([2H])(C([2H])([2H])[2H])C([2H])([2H])[2H])[nH]c5c4)cc2O3)[nH]1` [Compound 147], with above 9.00.
Then `CC[C@H](C)[C@H](NC(=O)OC)C(=O)N1CCC[C@H]1c1ncc(-c2ccc3c(c2)Oc2ccc(-c4cnc([C@@H]5COCCN5C(=O)[C@@H](NC(=O)OC)[C@@H](C)CC)[nH]4)cc2C3)[nH]1` [Compound 143], with above 9.00.
In the case of `COC(=O)N[C@H](C(=O)N1CCC[C@H]1c1ncc(-c2ccc3c(c2)Oc2ccc(-c4cnc([C@@H]5CCCN5C(=O)[C@@H](NC(=O)OC)C(C)C)[nH]4)cc2C32CC2)[nH]1)C(C)C` [Example 26], the pEC50 is above 9.00.
For `COC(=O)N[C@H](C(=O)N1CCC[C@H]1c1ncc(-c2ccc3c(=O)c4cc(-c5cnc([C@@H]6CCCN6C(=O)[C@@H](NC(=O)OC)C6CCCC6)[nH]5)ccc4oc3c2)[nH]1)C1CCCC1` [Compound 139] the value was above 9.00.
As to `CC[C@H](C)[C@H](NC(=O)OC)C(=O)N1CCC[C@H]1c1ncc(-c2ccc3c(c2)Oc2ccc(-c4cnc([C@@H]5CSCN5C(=O)[C@@H](NC(=O)OC)[C@@H](C)CC)[nH]4)cc2C3)[nH]1` [Compound 125], the pEC50 is above 9.00.
Consider `COC(=O)N[C@H](C(=O)N1CCC[C@H]1c1ncc(-c2ccc3c(c2)Oc2ccc(-c4cnc([C@@H]5COCCN5C(=O)[C@@H](NC(=O)OC)C(C)C)[nH]4)cc2C3)[nH]1)C(C)C` [Compound 144], for which the pEC50 is above 9.00.
Then `[2H]C([2H])([2H])C([2H])(C([2H])([2H])[2H])[C@]([2H])(NC(=O)OC)C(=O)N1CCC[C@H]1c1ncc(-c2ccc3c(c2)Oc2ccc(-c4cnc([C@@H]5CCCN5C(=O)[C@@]([2H])(NC(=O)OC)C([2H])(C([2H])([2H])[2H])C([2H])([2H])[2H])[nH]4)cc2O3)[nH]1` [Compound 57], with above 9.00; and `COC(=O)N[C@H](C(=O)N1CCCC[C@H]1c1ncc(-c2ccc3oc4cc(-c5cnc([C@@H]6CCCN6C(=O)[C@@H](NC(=O)OC)[C@@H](C)OC)[nH]5)ccc4c(=O)c3c2)[nH]1)[C@@H](C)OC` [Compound 140], with above 9.00; and `COC(=O)N[C@H](C(=O)N1CCC[C@H]1c1ncc(-c2ccc3c(c2)Cc2cc(-c4cnc([C@@H]5CCCN5C(=O)[C@@H](NC(=O)OC)C(C)C)[nH]4)ccc2O3)[nH]1)C(C)C` [Example 4], with 6.00 to 8.00.
For `COC(=O)N[C@H](C(=O)N1CCC[C@H]1c1ncc(-c2ccc3c(c2)Oc2ccc(-c4cnc([C@@H]5CCCN5C(=O)[C@@H](NC(=O)OC)[C@@H](C)OC)[nH]4)cc2C3(C)C)[nH]1)[C@@H](C)OC` [Compound 71] the value was above 9.00; for `COC(=O)N[C@H](C(=O)N1CCC[C@H]1c1ncc(-c2ccc3c(c2)Cc2cc(Cl)c(-c4cnc([C@@H]5CCCN5C(=O)[C@@H](NC(=O)OC)C(C)C)[nH]4)cc2O3)[nH]1)C(C)C` [Compound 61], above 9.00; for `CC[C@H](C)[C@H](NC(=O)OC)C(=O)N1CCC[C@H]1c1ncc(-c2ccc3oc4cc(-c5ccc6nc([C@@H]7CCCN7C(=O)[C@@H](NC(=O)OC)C(C)C)[nH]c6c5)ccc4c(=O)c3c2)[nH]1` [Compound 136], above 9.00.
Then `COC(=O)N[C@H](C(=O)N1CSC[C@H]1c1ncc(-c2ccc3c(=O)c4cc(-c5cnc([C@@H]6CSCN6C(=O)[C@@H](NC(=O)OC)C(C)C)[nH]5)ccc4oc3c2)[nH]1)C(C)C` [Compound 128], with above 9.00; and `COC(=O)N[C@H](C(=O)N[C@@H](C)c1ncc(-c2ccc3c(c2)Oc2ccc(-c4cnc([C@H](C)NC(=O)[C@@H](NC(=O)OC)C(C)C)[nH]4)cc2O3)[nH]1)C(C)C` [Compound 39], with above 9.00; and `COC(=O)N[C@H](C(=O)N1CCC[C@H]1c1ncc(-c2ccc3c(c2)C(C)(C)c2ccc(-c4ccc5nc([C@@H]6CCCN6C(=O)[C@@H](NC(=O)OC)C(C)C)[nH]c5c4)cc2O3)[nH]1)C(C)C` [Compound 133], with above 9.00.
For the molecule `C=CC[C@H](NC(=O)OC)C(=O)N1CCC[C@H]1c1ncc(-c2ccc3c(c2)Oc2ccc(-c4cnc([C@@H]5CCCN5C(=O)[C@H](CC=C)NC(=O)OC)[nH]4)cc2O3)[nH]1` [Compound 55], the pEC50 is above 9.00.
Regarding `COC(=O)N[C@H](C(=O)N1CCC[C@H]1c1nc2ccc(-c3ccc4c(=O)c5cc(-c6cnc([C@@H]7CCCN7C(=O)[C@@H](NC(=O)OC)[C@@H](C)OC)[nH]6)ccc5oc4c3)cc2[nH]1)C(C)C` [Compound 135], the pEC50 was above 9.00.
For `COC(=O)N[C@H](C(=O)N1CCC[C@H]1c1ncc(-c2ccc3nc4cc(-c5cnc([C@@H]6CCCN6C(=O)[C@@H](NC(=O)OC)C(C)C)[nH]5)ccc4nc3c2)[nH]1)C(C)C` [Example 1] the value was above 9.00; for `COC(=O)N[C@H](C(=O)N1CCC[C@H]1c1ncc(-c2ccc3c(c2)C(C)(C)c2ccc(-c4ccc5nc([C@@H]6CCCN6C(=O)[C@@H](NC(=O)OC)C6CCOCC6)[nH]c5c4)cc2O3)[nH]1)C1CCOCC1` [Compound 149], above 9.00.
For `COC(=O)N[C@H](C(=O)N1CCC[C@H]1c1ncc(-c2ccc3c(=O)c4cc(-c5cnc([C@@H]6CSCN6C(=O)[C@@H](NC(=O)OC)C(C)C)[nH]5)ccc4oc3c2)[nH]1)C(C)C` [Compound 122] the value was above 9.00; for `COC(=O)N[C@@H](C(=O)N1CCC[C@H]1c1ncc(-c2ccc3c(c2)C(C)(C)c2ccc(-c4ccc5nc([C@@H]6CCCN6C(=O)[C@H](NC(=O)OC)c6ccccc6)[nH]c5c4)cc2O3)[nH]1)c1ccccc1` [Compound 134], above 9.00.
